Test results taken from paper PMC8578629, “Photoactivated cell-killing amino-based flavylium compounds” (Scientific Reports, 2021).
Where two headings read alike, the source gives them in different places.

Assays:
HaCaT cells [1] = test: Reactive oxygen species production (DCF-DA); assay type: cell-based, human; details: 25 μM, 6.6 J cm^−2, versus control cells
Procedure: Cells reactive oxygen species (ROS) production was evaluated following the standard method. Briefly, cells were seed at a density of 4 × 10^4 cells/mL onto 96 well plates and after 24 h the compounds were added at 25 μM (non-toxic concentration) and the same previous procedure for the photoactivation assays was followed. After that, cells were washed twice in Hank’s Buffered Saline Solution (HBSS) and incubated with 100 μL of 50 μM 2′,7′-dichlorodihydrofluorescein diacetate (DCF‐DA) for 30 min in the same previous conditions. For positive control, cells were treated with 100 μM H2O2 for 30 min prior to the addition of DCF-DA. Cells were then washed twice with HBSS and incubated with fresh DMEM medium for 24 h. After this period, the fluorescence intensity at […] (ex/em) was determined in a FlexStation 3 Multi-Mode Microplate Reader.

[2] = Oxygen singlet production by Singlet Oxygen Sensor Green assay; details: compound 25 μM, after white light irradiation 79.2 J cm^−2
Procedure: The production of singlet oxygen by the different amino-based compounds in solution was determined as follows: a stock solution of Singlet Oxygen Sensor Green was prepared at 5 mM in methanol (MeOH). Working solutions of the probe were prepared at 2 mM in 100 mM pH 7.5 Tris buffer and in 100 mM pH 7.5 Tris buffer with 10 mM of Sodium Azide. The compounds were then prepared at a stock concentration of 500 μM and the working solutions were prepared in 100 mM pH 7.5 Tris buffer and in 100 mM pH 7.5 Tris buffer with 10 mM of Sodium Azide. 1 μL of Singlet Oxygen Sensor Green working solutions and 100 μL of compounds solution were mixed to a final volume of 1000 μL (in 100 mM pH 7.5 Tris buffer or in 100 mM pH 7.5 Tris buffer with 10 mM of Sodium Azide). 100 μL of each solution was then added to a 96-well black plate and 100 μL of Deuterium Oxide was added for a final concentration of 1 μM Singlet Oxygen Sensor Green and 25 μM for the different amino-based compounds. The fluorescence was then registered in a spectrofluorometer using excitation/emission of 488/525 nm. After this procedure, the wells were irradiated with a white light source with a total of 79.2 J cm^−2, corresponding to a total irradiation time of 1 h (6 pulses of 10 min) and then, the fluorescence determined using the same excitation/emission pair. As a positive control, Methylene Blue was used at a final concentration of 10 μM. The oxygen singlet production methodology was performed in a dark room.

HaCaT cells [3] = test: Photodynamic therapy mechanism determination with type I/type II quenchers; assay type: cell-based, human; details: compound 50 μΜ, light 6.6 J cm^−2
Procedure: For the determination of the photoactivation mechanism that yielded to cell death, cells were seeded as previously described for the photoactivation assays. […] The incubation proceeded for a time period of 4 h. After this, solutions containing the compounds were removed from cells and fresh medium containing the different quenchers were added to cells. Cells were irradiated for 10 min at an intensity of 50%, at room temperature (making a total energy exposition of 6.6 J cm^−2). The dark treatment was done by placing the plates for 10 min in a dark box at room temperature. After this, the medium was removed and replaced by fresh medium without any additive. The 96 well plates were then placed in an incubator at 37 °C in an atmosphere of 5% CO2 for 24 h. Finally, the Alamar Blue assay was performed to determine cell survival as previously described.

[4] = Molar absorption coefficient (ɛ) at 630 nm; assay type: physicochemical
Procedure: The molar extinction coefficient or molar absorption (ɛ), of all synthesized pigments was determined in three different solvents (ethanol, methanol and DMSO). For each pigment, in each solvent, a range of concentrations was prepared and then the spectrum of each solution was read. Finally, the respective absorbances (collected at 630 nm) were represented as a function of concentration and the ɛ value was taken from the slope value of the equation curve.

HaCaT cells [5] = test: Cellular photoactivation assay (white light or dark, Alamar Blue); assay type: cell-based, human; details: for Dark cytotoxicity to HaCaT cells (in words) / Photoactivation, dark versus white light (in words) / IC50: 4 h incubation; for Dark cytotoxicity to HaCaT cells (in words) / Photoactivation, dark versus white light (in words): 6.25–100 μM applied; for Photoactivation, dark versus white light (in words): white light 6.6 J cm^−2; for IC50: Homo sapiens, HaCaT, concentrations corrected for uptake
Procedure: A white light LED homemade device prototype has 96 LEDs appropriately arranged on a plate of 13 cm length × 8 cm width, with a distance from the microplate surface of 8 cm. The prototype has an irradiance of 21 W m^−2 and a wavelength range of 408–707 nm (Fig. S4).
For the cellular photoactivation assays, the white light source of 21 W m^−2 was used. Briefly, cells were seed at a density of 4 × 10^4 cells/mL onto 96 –well plates and after 24 h the compounds were added to the plates in different concentrations (6.25–100 μM) and incubated for a period of 4 h at 37 °C in an atmosphere of 5% CO2 and in the presence of DMEM with 2% FBS. After this period, the medium with the compounds was removed and fresh medium (DMEM with 2% FBS without phenol red (DMEM_2% FBS_w/o_PR) was added to cells. Following this procedure, cells were submitted to light irradiation, the selected light source at a height of 8 cm, in a chamber designed to ensure the same light quantity for each well during the treatment. Cells were irradiated for 10 min at an intensity of 50%, at room temperature (making a total energy exposition of 6.6 J cm^−2). The dark treatment was prepared by placing the plates for 10 min in a dark box at room temperature. After this, the 96 well plates were placed in an incubator at 37 °C in an atmosphere of 5% CO2 for 24 h. Then, to determine cell survival the Alamar Blue assay was performed as follows: after the 24 h, 20 μL of a solution of Resazurin (0.15 mg mL^−1 in PBS filtered in 0.22 μm filters) were added to each well (making a total volume of 120 μL per well), and the plates were incubated between 4–6 h (until the development of visible color change from violet to pink). The fluorescence intensity of each well was then determined at 560/590 nm (ex/em) (FlexStation 3 Multi-Mode Microplate Reader).

[6] = Maximum absorption wavelength of the flavylium cation; assay type: physicochemical; details: species adsorbed/absorbed in cells
[7] = white light 6.6 J cm^−2 (10 min), read-out: IC50 of HaCaT cell survival, LIGHT
[8] = 4 h, kept in the dark, read-out: IC50 of HaCaT cell survival, DARK

Q: Which results are given for `C=CC1=C(C)c2cc3[nH]c(cc4nc(cc5[nH]c(cc1n2)c(C)c5CCC(=O)O)C(CCC(=O)O)=C4C)c(C)c3C=C` [PpIX, protoporphyrin IX, reference compound]?
A: ROS production upon white light irradiation (in words) (HaCaT cells [1]): no significant differences; ^1O2 production [2]: 263.3 ± 12.28%; Increase of cell survival with quencher (HaCaT cells [3]; D-mannitol 10 mM (type I)): 27%; Increase of cell survival with quencher (HaCaT cells [3]; L-cysteine 10 mM (type I)): 26%; Increase of cell survival with quencher (HaCaT cells [3]; L-histidine 10 mM (type II)): 42%; Increase of cell survival with quencher (HaCaT cells [3]; sodium azide 10 mM (type II)): 37%; Molar absorption coefficient ɛ at 630 nm ([4]; DMSO): 3207 M⁻¹ cm⁻¹; Dark cytotoxicity to HaCaT cells (in words) (HaCaT cells [5]): no cytotoxic effects in dark conditions; Photoactivation, dark versus white light (in words) (HaCaT cells [5]): effective photoactivation from the three higher concentrations; IC50 (HaCaT cells [5]; [7]): 0.3 µM

Q: Which “ROS production upon white light irradiation (in words)” value (HaCaT cells [1]) does the source give for `CCN(CC)c1ccc2ccc(/C=C/c3ccc(N(C)C)cc3)[o+]c2c1` [7NEt2st4′NMe2, 7-(diethylamino)-2-(4′-dimethylaminostyryl)-benzopyrylium] here?
A: The value was “positive modulation of ROS production”.

Q: And the “^1O2 production” value [2]?
A: Its value is 181.2 ± 22.23%.

Q: What about the “Increase of cell survival with quencher” value (HaCaT cells [3]; D-mannitol 10 mM (type I)) of the same compound?
A: The value was 22%.

Q: And the “Increase of cell survival with quencher” value (HaCaT cells [3]; L-cysteine 10 mM (type I))?
A: Its value is 16%.

Q: And the “Increase of cell survival with quencher” value (HaCaT cells [3]; L-histidine 10 mM (type II))?
A: The value was 46%.

Q: What about the “Increase of cell survival with quencher” value (HaCaT cells [3]; sodium azide 10 mM (type II)) of the same compound?
A: The value was 31%.

Q: What about the “Molar absorption coefficient ɛ at 630 nm” value ([4]; DMSO) of the same compound?
A: The value was 15,728 M^−1 cm^−1.

Q: What about the “Molar absorption coefficient ɛ at 630 nm” value ([4]; Ethanol) of the same compound?
A: The value was 16,281 M^−1 cm^−1.

Q: What about the “Molar absorption coefficient ɛ at 630 nm” value ([4]; Methanol) of the same compound?
A: The value was 22,749 M^−1 cm^−1.

Q: What about the “Maximum absorption wavelength of the flavylium cation” value (from here on “Maximum absorption wavelength”) [6] of the same compound?
A: The value was 672 nm.

Q: And the “Dark cytotoxicity to HaCaT cells (in words)” value (from here on “Dark cytotoxicity”) (HaCaT cells [5])?
A: The value was “significant dark cytotoxicity”.

Q: And the “Photoactivation, dark versus white light (in words)” value (HaCaT cells [5])?
A: Its value is “significant photoactivation was found for the last four concentrations”.

Q: What about the IC50 (HaCaT cells [5]; [8]) of the same compound?
A: The IC50 was 5.11 ± 0.196 µM.

Q: And the IC50 (HaCaT cells [5]; [7])?
A: Its IC50 is 1.08 ± 0.13 µM.

Q: Which “ROS production upon white light irradiation (in words)” value (HaCaT cells [1]) does the source give for `CCN(CC)c1ccc2ccc(-c3ccc(N(C)C)cc3)[o+]c2c1` [7NEt24′NMe2, 7-diethylamino-4′-dimethylamino-benzopyrylium] here?
A: The value was “positive modulation of ROS production”.

Q: What about the “^1O2 production” value [2] of the same compound?
A: The value was 131.2 ± 3.90%.

Q: What about the “Increase of cell survival with quencher” value (HaCaT cells [3]; D-mannitol 10 mM (type I)) of the same compound?
A: Its value is 6%.

Q: And the “Increase of cell survival with quencher” value (HaCaT cells [3]; L-cysteine 10 mM (type I))?
A: Its value is 13%.

Q: What about the “Increase of cell survival with quencher” value (HaCaT cells [3]; L-histidine 10 mM (type II)) of the same compound?
A: The value was 44%.

Q: What about the “Increase of cell survival with quencher” value (HaCaT cells [3]; sodium azide 10 mM (type II)) of the same compound?
A: The value was 27%.

Q: And the “Molar absorption coefficient ɛ at 630 nm” value ([4]; DMSO)?
A: The value was 11,031 M^−1 cm^−1.

Q: And the “Molar absorption coefficient ɛ at 630 nm” value ([4]; Ethanol)?
A: Its value is 10,725 M^−1 cm^−1.

Q: And the “Molar absorption coefficient ɛ at 630 nm” value ([4]; Methanol)?
A: Its value is 8,720 M^−1 cm^−1.

Q: What about the “Maximum absorption wavelength” value [6] of the same compound?
A: Its value is 596 nm.

Q: And the “Dark cytotoxicity” value (HaCaT cells [5])?
A: Its value is “absence of dark cytotoxicity”.

Q: And the “Photoactivation, dark versus white light (in words)” value (HaCaT cells [5])?
A: Its value is “photoactivation even for low concentrations”.

Q: And the IC50 (HaCaT cells [5]; [7])?
A: Its IC50 is 0.905 ± 0.231 µM.

Q: What about the “Cell survival, minimum” value (HaCaT cells [5]; white light irradiation, highest concentration applied) of the same compound?
A: Its value is 38%.

Q: With `CCN(CC)c1ccc2ccc(-c3ccc(N)cc3)[o+]c2c1` [7NEt24′NH2, 4′-amino-7-diethylamino-benzopyrylium] as the compound, how does the “ROS production upon white light irradiation (in words)” value (HaCaT cells [1]) read?
A: Its value is “positive modulation of ROS production”.

Q: What about the “^1O2 production” value [2] of the same compound?
A: The value was 173.1 ± 15.73%.

Q: What about the “Increase of cell survival with quencher” value (HaCaT cells [3]; D-mannitol 10 mM (type I)) of the same compound?
A: Its value is 14%.

Q: And the “Increase of cell survival with quencher” value (HaCaT cells [3]; L-cysteine 10 mM (type I))?
A: Its value is 27%.

Q: And the “Increase of cell survival with quencher” value (HaCaT cells [3]; L-histidine 10 mM (type II))?
A: Its value is 33%.

Q: What about the “Increase of cell survival with quencher” value (HaCaT cells [3]; sodium azide 10 mM (type II)) of the same compound?
A: The value was 31%.

Q: And the “Molar absorption coefficient ɛ at 630 nm” value ([4]; DMSO)?
A: The value was 5687 M⁻¹ cm⁻¹.

Q: And the “Molar absorption coefficient ɛ at 630 nm” value ([4]; Ethanol)?
A: The value was 2225 M⁻¹ cm⁻¹.

Q: What about the “Molar absorption coefficient ɛ at 630 nm” value ([4]; Methanol) of the same compound?
A: The value was 1682 M⁻¹ cm⁻¹.

Q: And the “Maximum absorption wavelength” value [6]?
A: Its value is 575 nm.

Q: And the “Dark cytotoxicity” value (HaCaT cells [5])?
A: Its value is “significant decrease of cell survival”.

Q: And the “Photoactivation, dark versus white light (in words)” value (HaCaT cells [5])?
A: The value was “potential photo-activation”.

Q: And the IC50 (HaCaT cells [5]; [8])?
A: The IC50 was 3 ± 0.734 µM.

Q: What about the IC50 (HaCaT cells [5]; [7]) of the same compound?
A: The IC50 was 1.53 ± 0.081 µM.
